Assay results taken from patent US7482363B2, “Piperidine derivatives useful as modulators of chemokine receptor activity” (AstraZeneca AB, priority 2002, dated 2009).

Key:
[1] = system: Human eosinophils (eotaxin mediated chemotaxis); experiment: Human eosinophil chemotaxis; format: cell-based
Description: Human Eosinophil Chemotaxis
Human eosinophils were isolated from EDTA anticoagulated peripheral blood as previously described (Hansel et al., J. Immunol. Methods, 1991, 145, 105-110). The cells were resuspended at 10×10^6 ml^−1 in RPMI containing 200 IU/ml penicillin, 200 μg/ml streptomycin sulphate and supplemented with 10% HIFCS, at room temperature.
Eosinophils (700 μl) were pre-incubated for 15 mins at 37° C. with 7 μl of either vehicle or compound (100× required final concentration in 10% DMSO). The chemotaxis plate (ChemoTx, 3 μm pore, Neuroprobe) was loaded by adding 28 μl of a concentration of eotaxin (0.1 to 100 nM) containing a concentration of a compound according to the Examples or solvent to the lower wells of the chemotaxis plate. The filter was then placed over the wells and 25 μl of eosinophil suspension were added to the top of the filter. The plate was incubated for 1 hr at 37° C. in a humidified incubator with a 95% air/5% CO2 atmosphere to allow chemotaxis.
The medium, containing cells that had not migrated, was carefully aspirated from above the filter and discarded. The filter was washed once with phosphate buffered saline (PBS) containing 5 mM EDTA to remove any adherent cells. […] The number of eosinophils migrating was quantified according to the method of Strath et al., J. Immunol. […]

human H1 receptor = biological target: T1, human H1 receptor (Homo sapiens, UniProt P35367); experiment: Histamine H1 receptor binding, competition displacement of [3H]-pyrilamine; settings: 1 nM [3H]-pyrilamine, membranes of recombinant CHO-K1 cells expressing the human H1 receptor; read-out: H1 antagonism pKi (converted)
T1 construct: purchased Euroscreen SA, Brussels, Belgium ES-390-M; host or cells: CHO-K1
Description: Histamine H1 receptor binding activity of compounds of the invention was assessed by competition displacement of 1 nM [3H]-pyrilamine (Amersham, Bucks, Product code TRK 608, specific activity 30 Ci/mmol) to 2 μg membranes prepared from recombinant CHO-K1 cells expressing the human H1 receptor (Euroscreen SA, Brussels, Belgium, product code ES-390-M) in assay buffer (50 mM Tris pH 7.4 containing 2 mM MgCl2, 250 mM sucrose and 100 mM NaCl) for 1 hour at room temperature.

T1 sequence (P35367 whole entry): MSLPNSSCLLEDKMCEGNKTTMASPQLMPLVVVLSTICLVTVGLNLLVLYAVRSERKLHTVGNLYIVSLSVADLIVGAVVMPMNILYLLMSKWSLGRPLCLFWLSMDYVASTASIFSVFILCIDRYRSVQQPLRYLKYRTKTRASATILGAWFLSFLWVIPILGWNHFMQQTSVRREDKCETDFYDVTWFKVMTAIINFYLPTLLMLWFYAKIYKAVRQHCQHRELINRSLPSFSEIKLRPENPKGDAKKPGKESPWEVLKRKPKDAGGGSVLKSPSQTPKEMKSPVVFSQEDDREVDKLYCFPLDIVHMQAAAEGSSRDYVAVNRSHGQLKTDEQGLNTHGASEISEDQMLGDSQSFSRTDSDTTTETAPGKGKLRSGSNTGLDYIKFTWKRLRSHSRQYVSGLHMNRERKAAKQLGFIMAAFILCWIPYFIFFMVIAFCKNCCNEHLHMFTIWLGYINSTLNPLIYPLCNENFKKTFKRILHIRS

Row | SMILES | % Inhibition (3 nM Human Eotaxin) [1] | Ki (human H1 receptor)
1 | COc1cccc(OC)c1C(C(=O)O)N1CCC(N2CCC(Oc3ccc(Cl)c(Cl)c3)CC2)CC1 (stereo not drawn) [Example 2, 4-(3,4-dichlorophenoxy)-α-(2,6-dimethoxyphenyl)-[1,4′-bipiperidine]-1′-acetic acid] | 90% | 158 nM
2 | Cc1cc(Cl)ccc1OC1CCN(C2CCN(C(C(=O)O)c3ccccc3)CC2)CC1 (stereo not drawn) [Example 3, 4-(4-chloro-2-methylphenoxy)-α-phenyl-[1,4′-bipiperidine]-1′-acetic acid] | 105% | 50.1 nM
